The compounds below were run against T1, Dimer of Gag-Pol polyprotein [514-612] (Human immunodeficiency virus 2, UniProt P04584) (assay: Protease Inhibition Assay). Conditions: pH 5.5; 37 °C.
T1 construct: 514-612
T1 sequence (P04584 whole entry): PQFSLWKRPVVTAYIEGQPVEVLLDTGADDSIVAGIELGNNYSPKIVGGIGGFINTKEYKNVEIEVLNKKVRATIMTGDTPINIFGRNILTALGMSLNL
Description: (§1) Sensitivity of HIV-1 protease activity to protease inhibitors was determined by a peptide substrate cleavage assay. Cleavage products and substrate were separated by reversed-phase HPLC on a Perkin-Elmer 3 X 3CR C8 column.

Compound	IC50
CCC(CC)NC(=O)C[C@@H](C(=O)NC[C@@H](O)[C@H](Cc1ccccc1)NC(=O)[C@@H](NC(=O)c1ccc2ccccc2n1)C(C)C)C(C)(C)C [(2R)-2-tert-butyl-N-[(2R,3S)-2-hydroxy-3-[(2S)-3-methyl-2-(quinolin-2-ylformamido)butanamido]-4-phenylbutyl]-N'-(pentan-3-yl)butanediamide]	42 nM
CCC(CC)NC(=O)C[C@@H](C(=O)NC[C@@H](O)[C@H](Cc1ccccc1)NC(=O)[C@@H](NC(=O)c1cnc2ccccc2n1)C(C)C)C(C)(C)C [(2R)-2-tert-butyl-N-[(2R,3S)-2-hydroxy-3-[(2S)-3-methyl-2-(quinoxalin-2-ylformamido)butanamido]-4-phenylbutyl]-N'-(pentan-3-yl)butanediamide]	38 nM
CCC(CC)NC(=O)C[C@@H](C(=O)NC[C@@H](O)[C@H](Cc1ccccc1)NC(=O)[C@@H](NC(=O)c1cnc2ccccc2n1)C(C)O)C(C)(C)C (stereo partly drawn) [(2R)-2-tert-butyl-N-[(2R,3S)-2-hydroxy-3-[(2S,3R)-3-hydroxy-2-(quinoxalin-2-ylformamido)butanamido]-4-phenylbutyl]-N'-(pentan-3-yl)butanediamide]	135 nM
CCC(CC)NC(=O)C[C@@H](C(=O)NC[C@@H](O)[C@H](Cc1ccccc1)NC(=O)[C@H](CC(N)=O)NC(=O)c1ccc2ccccc2n1)C(C)(C)C [(2S)-N-[(2S,3R)-4-[(2R)-2-tert-butyl-N-(pentan-3-yl)butanediamido]-3-hydroxy-1-phenylbutan-2-yl]-2-(quinolin-2-ylformamido)butanediamide]	6.7 nM
CCC(CC)NC(=O)C[C@@H](C(=O)NC[C@@H](O)[C@H](Cc1ccccc1)NC(=O)[C@H](CC(N)=O)NC(=O)c1cnc2ccccc2n1)C(C)(C)C [(2S)-N-[(2S,3R)-4-[(2R)-2-tert-butyl-N-(pentan-3-yl)butanediamido]-3-hydroxy-1-phenylbutan-2-yl]-2-(quinoxalin-2-ylformamido)butanediamide]	6.3 nM

The compounds below were run against T2, Dimer of Gag-Pol polyprotein [489-587] (Human immunodeficiency virus 1, UniProt P12497) (assay: Protease Inhibition Assay). Conditions: pH 5.5; 37 °C.
T2 construct: 489-587
Description: as §1

Compound	IC50
CCC(CC)NC(=O)C[C@@H](C(=O)NC[C@@H](O)[C@H](Cc1ccccc1)NC(=O)[C@@H](NC(=O)c1ccc2ccccc2n1)C(C)O)C(C)(C)C (stereo partly drawn) [(2R)-2-tert-butyl-N-[(2R,3S)-2-hydroxy-3-[(2S,3R)-3-hydroxy-2-(quinolin-2-ylformamido)butanamido]-4-phenylbutyl]-N'-(pentan-3-yl)butanediamide]	3.6 nM
CCC(CC)NC(=O)C[C@@H](C(=O)NC[C@@H](O)[C@H](Cc1ccccc1)NC(=O)[C@@H](NC(=O)c1cnc2ccccc2n1)C(C)O)C(C)(C)C (stereo partly drawn) [(2R)-2-tert-butyl-N-[(2R,3S)-2-hydroxy-3-[(2S,3R)-3-hydroxy-2-(quinoxalin-2-ylformamido)butanamido]-4-phenylbutyl]-N'-(pentan-3-yl)butanediamide]	3 nM
CC(C)[C@H](NC(=O)OCc1ccccc1)C(=O)N[C@@H](Cc1ccccc1)[C@H](O)CNC(=O)C1CCCCC1C(=O)NC(C)(C)C (stereo partly drawn) [benzyl N-[(1S)-1-{[(2S,3R)-4-{[2-(tert-butylcarbamoyl)cyclohexyl]formamido}-3-hydroxy-1-phenylbutan-2-yl]carbamoyl}-2-methylpropyl]carbamate]	140 nM
CCC(CC)NC(=O)C[C@@H](C(=O)NC[C@@H](O)[C@H](Cc1ccccc1)NC(=O)[C@@H](NC(=O)OCc1ccccc1)C(C)O)C(C)(C)C (stereo partly drawn) [benzyl N-[(1S,2S)-1-{[(2S,3R)-4-[(2R)-2-tert-butyl-N-(pentan-3-yl)butanediamido]-3-hydroxy-1-phenylbutan-2-yl]carbamoyl}-2-hydroxypropyl]carbamate]	8.2 nM
